Experimental data as given in ChEMBL document CHEMBL3885881, “DrugMatrix”.

Species on record: Rattus norvegicus
Assay: DrugMatrix - Regimen: Daily Repeat
Assay type: toxicity, organism-based, Sprague-Dawley
Parameters: regimen Daily Repeat, gender Male, age 6-8 weeks
Settings: in vivo, po, route oral GAVAGE, vehicle 100 % WATER; for ABSOLUTE BASOPHIL / ABSOLUTE EOSINOPHIL / ABSOLUTE LYMPHOCYTE / ABSOLUTE MONOCYTE / ABSOLUTE SEGMENTED NEUTROPHIL / BASOPHIL / EOSINOPHIL / ERYTHROCYTE COUNT / HEMATOCRIT / HEMOGLOBIN / LEUKOCYTE COUNT / LYMPHOCYTE / MEAN CORPUSCULAR HEMOGLOBIN / MEAN CORPUSCULAR HEMOGLOBIN CONCENTRATION / MEAN CORPUSCULAR VOLUME / MONOCYTE / NEUTROPHIL / NUCLEATED RED BLOOD CELLS / PLATELET COUNT: tissue Blood; for ALANINE AMINOTRANSFERASE / ALBUMIN / ALKALINE PHOSPHATASE / ASPARTATE AMINOTRANSFERASE / BLOOD UREA NITROGEN / CARBON DIOXIDE / CHLORIDE / CHOLESTEROL / CREATINE PHOSPHOKINASE / CREATININE / GLUCOSE / LACTATE DEHYDROGENASE / LIPASE / PHOSPHORUS / POTASSIUM / SODIUM / TOTAL BILIRUBIN / TOTAL PROTEIN / URIC ACID: tissue Plasma
[1] = 0 mg/kg, 72 h, dose level Control, time 3 day
[2] = 0 mg/kg, 120 h, dose level Control, time 5 day
[3] = 100 mg/kg, 72 h, dose level Low, time 3 day

NC(=O)c1cccnc1 [NIACINAMIDE]
ABSOLUTE BASOPHIL [1]: 0 CELLS/uL
ABSOLUTE EOSINOPHIL [1]: 46 CELLS/uL
ABSOLUTE LYMPHOCYTE [1]: 10225.67 CELLS/uL
ABSOLUTE MONOCYTE [1]: 319.33 CELLS/uL
ABSOLUTE SEGMENTED NEUTROPHIL [1]: 1242.33 CELLS/uL
BASOPHIL [1]: 0%
EOSINOPHIL [1]: 0.33%
ERYTHROCYTE COUNT [1]: 5.17 x10E6/uL
HEMATOCRIT [1]: 33.43%
HEMOGLOBIN [1]: 12.55 G/DL
LEUKOCYTE COUNT [1]: 11.83 x10E3/uL
LYMPHOCYTE [1]: 86.5%
MEAN CORPUSCULAR HEMOGLOBIN [1]: 24.35 pg
MEAN CORPUSCULAR HEMOGLOBIN CONCENTRATION [1]: 37.57 G/DL
MEAN CORPUSCULAR VOLUME [1]: 64.8 fL
MONOCYTE [1]: 2.67%
NEUTROPHIL [1]: 10.5%
NUCLEATED RED BLOOD CELLS [1]: 0.17 /100WBC
PLATELET COUNT [1]: 1026.17 x10E3/uL
ALANINE AMINOTRANSFERASE [1]: 52.67 u/L
ALBUMIN [1]: 4.17 G/DL
ALKALINE PHOSPHATASE [1]: 331 u/L
ASPARTATE AMINOTRANSFERASE [1]: 92.33 u/L
BLOOD UREA NITROGEN [1]: 15.33 mg/dL
CARBON DIOXIDE [1]: 26.17 mmol/L
CHLORIDE [1]: 103.17 MEQ/L
CHOLESTEROL [1]: 73.67 mg/dL
CREATINE PHOSPHOKINASE [1]: 472.83 u/L
CREATININE [1]: 0.29 mg/dL
GLUCOSE [1]: 178.5 mg/dL
LACTATE DEHYDROGENASE [1]: 244.83 u/L
LIPASE [1]: 10.67 u/L
PHOSPHORUS [1]: 12.45 mg/dL
POTASSIUM [1]: 6.35 MEQ/L
SODIUM [1]: 144.27 MEQ/L
TOTAL BILIRUBIN [1]: 0.13 mg/dL
TOTAL PROTEIN [1]: 5.77 G/DL
URIC ACID [1]: 2.08 mg/dL
ABSOLUTE BASOPHIL [2]: 0 CELLS/uL
ABSOLUTE EOSINOPHIL [2]: 23.5 CELLS/uL
ABSOLUTE LYMPHOCYTE [2]: 12797.33 CELLS/uL
ABSOLUTE MONOCYTE [2]: 465.5 CELLS/uL
ABSOLUTE SEGMENTED NEUTROPHIL [2]: 1313.67 CELLS/uL
BASOPHIL [2]: 0%
EOSINOPHIL [2]: 0.17%
ERYTHROCYTE COUNT [2]: 5.76 x10E6/uL
HEMATOCRIT [2]: 36.72%
HEMOGLOBIN [2]: 13.72 G/DL
LEUKOCYTE COUNT [2]: 14.6 x10E3/uL
LYMPHOCYTE [2]: 87.5%
MEAN CORPUSCULAR HEMOGLOBIN [2]: 23.8 pg
MEAN CORPUSCULAR HEMOGLOBIN CONCENTRATION [2]: 37.35 G/DL
MEAN CORPUSCULAR VOLUME [2]: 63.72 fL
MONOCYTE [2]: 3.17%
NEUTROPHIL [2]: 9.17%
NUCLEATED RED BLOOD CELLS [2]: 0.33 /100WBC
PLATELET COUNT [2]: 1270.67 x10E3/uL
ALANINE AMINOTRANSFERASE [2]: 50.5 u/L
ALBUMIN [2]: 4.32 G/DL
ALKALINE PHOSPHATASE [2]: 339.67 u/L
ASPARTATE AMINOTRANSFERASE [2]: 88 u/L
BLOOD UREA NITROGEN [2]: 17 mg/dL
CARBON DIOXIDE [2]: 25 mmol/L
CHLORIDE [2]: 103.83 MEQ/L
CHOLESTEROL [2]: 71.33 mg/dL
CREATINE PHOSPHOKINASE [2]: 281.83 u/L
CREATININE [2]: 0.26 mg/dL
GLUCOSE [2]: 161.67 mg/dL
LACTATE DEHYDROGENASE [2]: 191.17 u/L
LIPASE [2]: 10.17 u/L
PHOSPHORUS [2]: 11.72 mg/dL
POTASSIUM [2]: 6.76 MEQ/L
SODIUM [2]: 145.17 MEQ/L
TOTAL BILIRUBIN [2]: 0.2 mg/dL
TOTAL PROTEIN [2]: 6.15 G/DL
URIC ACID [2]: 2 mg/dL
ABSOLUTE BASOPHIL [3]: 0 CELLS/uL
ABSOLUTE EOSINOPHIL [3]: 0 CELLS/uL
ABSOLUTE LYMPHOCYTE [3]: 11521.67 CELLS/uL
ABSOLUTE MONOCYTE [3]: 217.67 CELLS/uL
ABSOLUTE SEGMENTED NEUTROPHIL [3]: 794 CELLS/uL
BASOPHIL [3]: 0%
EOSINOPHIL [3]: 0%
ERYTHROCYTE COUNT [3]: 5.92 x10E6/uL
HEMATOCRIT [3]: 38.23%
HEMOGLOBIN [3]: 14.33 G/DL
LEUKOCYTE COUNT [3]: 12.53 x10E3/uL
LYMPHOCYTE [3]: 92.33%
MEAN CORPUSCULAR HEMOGLOBIN [3]: 24.2 pg
MEAN CORPUSCULAR HEMOGLOBIN CONCENTRATION [3]: 37.47 G/DL
MEAN CORPUSCULAR VOLUME [3]: 64.53 fL
MONOCYTE [3]: 1.67%
NEUTROPHIL [3]: 6%
NUCLEATED RED BLOOD CELLS [3]: 0.33 /100WBC
PLATELET COUNT [3]: 1202 x10E3/uL
ALANINE AMINOTRANSFERASE [3]: 47.67 u/L
ALBUMIN [3]: 4.43 G/DL
ALKALINE PHOSPHATASE [3]: 308.33 u/L
ASPARTATE AMINOTRANSFERASE [3]: 89 u/L
BLOOD UREA NITROGEN [3]: 17.67 mg/dL
CARBON DIOXIDE [3]: 25.67 mmol/L
CHLORIDE [3]: 103.67 MEQ/L
CHOLESTEROL [3]: 87.33 mg/dL
CREATINE PHOSPHOKINASE [3]: 322 u/L
CREATININE [3]: 0.26 mg/dL
GLUCOSE [3]: 158 mg/dL
LACTATE DEHYDROGENASE [3]: 344 u/L
LIPASE [3]: 11.67 u/L
PHOSPHORUS [3]: 13.47 mg/dL
POTASSIUM [3]: 6.73 MEQ/L
SODIUM [3]: 147.7 MEQ/L
TOTAL BILIRUBIN [3]: 0.2 mg/dL
TOTAL PROTEIN [3]: 6.2 G/DL
URIC ACID [3]: 2.6 mg/dL
